US8604217B2, “Compound, a process for its preparation, a pharmaceutical composition, use of a compound, a method for modulating or regulating serine/threonine kinases and a serine/threonine kinases modulating agent” (Selvita S.A., priority 2009, dated 2013)

Assays:
[1] = system: human chronic myelocytic leukemia K562 cells; assay: Growth inhibition test (MTS) on K562 cells; type: cell-based; conditions: 72 hours, read-out: K562 ED50
Description: (§1) Ten thousand cells of human chronic myelocytic leukemia K562 were inoculated into each well of a 96-well microplate (manufactured by Corning Corp.) using Iscove's MDM medium (culture medium) containing 10% fetal calf serum (FCS). Next day, a dimethyl sulfoxide (DMSO) solution of each test compound prepared in a concentration of 10 mmol/L was further diluted with culture medium to the desired concentrations (0.1, 0.5, 1, 2.5, 5 and 10 micromol/L), and the diluted solution was added to each well. The individual wells were further cultured in 5% carbon dioxide at 37° C. for 72 hours. After completion of the culture, 10 μl MTS (3-(4,5-Dimethyl-2-thiazolyl)-5-(carboxymethoxyphenyl)-2-(4-sulfophenyl)-2H-tetrazolium, inner salt assay (CellTiter96® AQueous One Solution Cell Proliferation Assay, Promega) was added to each well, and culturing was performed in 5% carbon dioxide at 37° C. for 2 hours. Using a microplate spectrophotometer (Synergy 2 multi-mode microplate reader (BioTek)), the absorbance of each well was measured at 490 nm. The value for cells not incorporated with a test compound was designated as 100%. By comparing these values with the absorbance difference obtained at the well in which each test compound was added, the cell viability (% viability) after treatment with the test compound was calculated.

[2] = system: human hepatoma HepG2 cells; assay: Growth inhibition test (MTS) on HepG2 cells; type: cell-based; conditions: 72 hours, read-out: HepG2 ED50
Outline: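 HepG2 cells in DMEM with 10% FCS were exposed for 72 h at 37 °C, 5% CO2, to 0.1, 0.5, 1, 2.5, 5 and 10 micromol/L compound. MTS was then added for 2 h and absorbance read at 490 nm. % viability was calculated relative to untreated cells set at 100%.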

PIM-1 = PIM-1 (Homo sapiens (Human), UniProt P11309); assay: Luminometric kinase assay for PIM1 kinase (Kinase-Glo); type: biochemical; conditions: 1 μM ATP, 25 min at RT
Chain of PIM-1 (P11309 whole entry): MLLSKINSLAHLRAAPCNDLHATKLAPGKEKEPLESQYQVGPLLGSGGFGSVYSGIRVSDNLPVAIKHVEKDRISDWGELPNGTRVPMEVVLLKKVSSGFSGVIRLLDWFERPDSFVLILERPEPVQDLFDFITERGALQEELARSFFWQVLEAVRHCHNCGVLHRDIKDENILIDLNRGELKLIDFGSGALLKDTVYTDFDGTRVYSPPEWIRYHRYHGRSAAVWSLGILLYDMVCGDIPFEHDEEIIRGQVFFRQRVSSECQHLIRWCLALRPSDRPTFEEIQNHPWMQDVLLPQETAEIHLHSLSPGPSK
Outline: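 Kinase and substrate reacted in 8 mM MOPS/NaOH pH7.0, 0.2 mM EDTA, 2 mM MgCl2 with 1 μM ATP for 25 min at RT, compounds serially diluted from 1 μM. Remaining ATP read by Kinase-Glo luminescence; IC50 from variable-slope sigmoidal fit.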

[3] = system: human breast adenocarcinoma MCF7 cells; assay: Growth inhibition test (MTS) on MCF7 cells; type: cell-based; conditions: 72 hours, read-out: MCF-7 ED50
Outline: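 MCF7 cells seeded in DMEM with 10% FCS, dosed next day at 0.1–10 micromol/L (diluted from 10 mmol/L DMSO stock) and cultured 72 h at 37° C, 5% CO2. MTS added for 2 h, absorbance read at 490 nm; % viability calculated relative to untreated cells as 100%.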

[4] = system: human colorectal adenocarcinoma SW480 cells; assay: Growth inhibition test (MTS) on SW480 cells; type: cell-based; conditions: 72 hours, read-out: SW480 ED50
Description: as §1, with “Two” for “Ten”, “colorectal adenocarcinoma SW480” for “chronic myelocytic leukemia K562”, “Corp.), and” for “Corp.)”, “DMEM/Ham's F121:1” for “Iscove's MDM”, “5%” for “10%”

[5] = system: human prostate adenocarcinoma PC3 cells; assay: Growth inhibition test (MTS) on PC3 cells; type: cell-based; conditions: Homo sapiens, PC-3, 72 hours, read-out: PC-3 ED50

IC50 [1]: 3.72 µM
IC50 [2]: 2.54 µM
IC50 (PIM-1): 0.319 µM
IC50 [3]: 3.65 µM
IC50 [4]: 1.08 µM
IC50 [5]: 3.86 µM
SMILES: Brc1c(Br)c(Br)c2[nH]c(NCCN3CCCCC3)nc2c1Br [Compound 13, 4,5,6,7-tetrabromo-N-(2-(piperidin-1-yl)ethyl)-1H-benzo[d]imidazol-2-amine]
